Laboratory results from patent US6737383B1, “Herbicidal oxadiazolidines” (priority 1999, dated 2004).

Assays:
bedstraw = experiment: Test B pre/postemergence bedstraw; assay type: in vivo, Galium aparine; conditions: Postemergence
Procedure, shortened: (§1)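 Response is a visual 0-to-10 score relative to untreated plants, where 0 means no effect and 10 means complete control, taken twelve to sixteen days after application. Treatments went onto soil at planting and onto foliage of 1- to 4-leaf plants, using a surfactant-containing non-phytotoxic solvent.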

blackgrass = experiment: Test B pre/postemergence blackgrass; assay type: in vivo, Alopecurus myosuroides
Procedure, shortened: as §1

surinam grass = experiment: Test B pre/postemergence surinam grass; assay type: in vivo, Brachiaria decumbens
Procedure, shortened: as §1

cocklebur = experiment: Test B pre/postemergence cocklebur; assay type: in vivo, Xanthium strumarium
Procedure, shortened: as §1

corn = experiment: Test B pre/postemergence corn; assay type: in vivo, Zea mays
Procedure, shortened: as §1

giant foxtail = experiment: Test B pre/postemergence giant foxtail; assay type: in vivo, Setaria faberii
Procedure, shortened: as §1

morningglory = experiment: Test B pre/postemergence morningglory; assay type: in vivo, Ipomoea hederacea; conditions: for Plant response rating, Morningglory: scale of 0 to 10 where 0 is no effect and 10 is complete control
Procedure, shortened: as §1

pigweed = experiment: Test B pre/postemergence pigweed; assay type: in vivo, Amaranthus retroflexus; conditions: for Plant response rating, Redroot pigweed: scale of 0 to 10 where 0 is no effect and 10 is complete control
Procedure, shortened: as §1

rape = experiment: Test B pre/postemergence rape; assay type: in vivo, Brassica napus; conditions: for Plant response rating, Rape: scale of 0 to 10 where 0 is no effect and 10 is complete control
Procedure, shortened: as §1

soybean = experiment: Test B pre/postemergence soybean; assay type: in vivo, Glycine max; conditions: for Plant response rating, Soybean: scale of 0 to 10 where 0 is no effect and 10 is complete control
Procedure, shortened: as §1

sugar beet = experiment: Test B pre/postemergence sugar beet; assay type: in vivo, Beta vulgaris; conditions: for Plant response rating, Sugarbeets: scale of 0 to 10 where 0 is no effect and 10 is complete control
Procedure, shortened: as §1

velvetleaf = experiment: Test B pre/postemergence velvetleaf; assay type: in vivo, Abutilon theophrasti; conditions: for Plant response rating, Velvetleaf: scale of 0 to 10 where 0 is no effect and 10 is complete control
Procedure, shortened: as §1

wheat = experiment: Test B pre/postemergence wheat; assay type: in vivo, Triticum aestivum; conditions: for Plant response rating, Wheat: scale of 0 to 10 where 0 is no effect and 10 is complete control
Procedure, shortened: as §1

wild oat = experiment: Test B pre/postemergence wild oat; assay type: in vivo, Avena fatua; conditions: for Plant response rating, Wild oats: scale of 0 to 10 where 0 is no effect and 10 is complete control
Procedure, shortened: as §1

rice = experiment: Test B flood test rice; assay type: in vivo, Oryza sativa
Procedure, shortened: (§2)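 Flood test on plants grown to the 2-leaf stage; treated plants kept in greenhouse twelve to sixteen days, then visually rated against controls on a 0 (no effect) to 10 (complete control) scale.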

smallflower flatsedge = experiment: Test B flood test smallflower flatsedge; assay type: in vivo, Cyperus difformis
Procedure, shortened: as §2

[1] = Postemergence, Rate 250 g/ha, scale 0 to 10
[2] = Postemergence, Rate 500 g/ha, scale of 0 to 10 where 0 is no effect and 10 is complete control
[3] = Preemergence, Rate 62 g/ha, scale of 0 to 10 where 0 is no effect and 10 is complete control
[4] = Preemergence, Rate 125 g/ha, scale of 0 to 10 where 0 is no effect and 10 is complete control
[5] = Preemergence, Rate 250 g/ha, scale 0 to 10, 0 is no effect, 10 is complete control
[6] = Preemergence, Rate 500 g/ha, scale 0 to 10, 0 is no effect, 10 is complete control
[7] = Rate 62 g/ha, Postemergence, scale 0 to 10, 0 no effect, 10 complete control
[8] = Rate 125 g/ha, Postemergence, scale 0 to 10, 0 is no effect, 10 is complete control
[9] = Rate 62 g/ha, flood test species, Pre-emergence, visual evaluation after twelve to sixteen days
[10] = Rate 125 g/ha, under heading Pre-emergence, flood test species, visual evaluation after twelve to sixteen days
[11] = Rate 250 g/ha, Pre-emergence (flood test species), scale 0 to 10, 0 is no effect, 10 is complete control
[12] = Rate 500 g/ha, Pre-emergence, flood test species, scale 0 to 10 (0 no effect, 10 complete control)

CC(C)N(C(=O)n1oc(=O)n(C(C)C#N)c1=O)c1ccc(Cl)cc1 (stereo not shown) [Compound 451]
7: Giant foxtail plant response rating (giant foxtail; [2]) | Giant foxtail plant response rating (giant foxtail; [6])
0: Bedstraw plant response rating (bedstraw; Rate 62 g/ha, scale 0 to 10, 0 no effect, 10 complete control) | Bedstraw plant response rating (bedstraw; Rate 125 g/ha, scale 0 to 10, 0 is no effect, 10 is complete control) | Plant response rating, Blackgrass (blackgrass; [3]) | Plant response rating, Blackgrass (blackgrass; [4]) | Blackgrass plant response rating (blackgrass; [5]) | Blackgrass plant response rating (blackgrass; [6]) | Blackgrass plant response rating (blackgrass; [7]) | Blackgrass plant response rating (blackgrass; [8]) | B. signalgrass plant response rating (surinam grass; Postemergence, Rate 250 g/ha, scale 0 to 10, 0 no effect, 10 complete control) | Plant response rating, B. signalgrass (surinam grass; [3]) | Plant response rating, B. signalgrass (surinam grass; [4]) | B. signalgrass plant response rating (surinam grass; [5]) | B. signalgrass plant response rating (surinam grass; [6]) | B. signalgrass plant response rating (surinam grass; [7]) | B. signalgrass plant response rating (surinam grass; [8]) | Cocklebur plant response rating (cocklebur; [1]) | Cocklebur plant response rating (cocklebur; [2]) | Plant response rating, Cocklebur (cocklebur; [3]) | Plant response rating, Cocklebur (cocklebur; [4]) | Cocklebur plant response rating (cocklebur; [5]) | Cocklebur plant response rating (cocklebur; [6]) | Cocklebur plant response rating (cocklebur; [7]) | Cocklebur plant response rating (cocklebur; [8]) | Corn plant response rating (corn; [1]) | Corn plant response rating (corn; [2]) | Plant response rating, Corn (corn; [3]) | Plant response rating, Corn (corn; [4]) | Corn plant response rating (corn; [5]) | Corn plant response rating (corn; [6]) | Corn plant response rating (corn; [7]) | Corn plant response rating (corn; [8]) | Plant response rating, Giant foxtail (giant foxtail; [3]) | Plant response rating, Giant foxtail (giant foxtail; [4]) | Giant foxtail plant response rating (giant foxtail; [7]) | Giant foxtail plant response rating (giant foxtail; [8]) | Plant response rating, Morningglory (morningglory; Preemergence, Rate 62 g/ha) | Plant response rating, Morningglory (morningglory; Preemergence, Rate 125 g/ha) | Morningglory plant response rating (morningglory; [5]) | Morningglory plant response rating (morningglory; [6]) | Redroot pigweed plant response rating (pigweed; [1]) | Plant response rating, Redroot pigweed (pigweed; Preemergence, Rate 62 g/ha) | Plant response rating, Redroot pigweed (pigweed; Preemergence, Rate 125 g/ha) | Redroot pigweed plant response rating (pigweed; [5]) | Redroot pigweed plant response rating (pigweed; [6]) | Redroot pigweed plant response rating (pigweed; [7]) | Redroot pigweed plant response rating (pigweed; [8]) | Rape plant response rating (rape; [1]) | Plant response rating, Rape (rape; Preemergence, Rate 62 g/ha) | Plant response rating, Rape (rape; Preemergence, Rate 125 g/ha) | Rape plant response rating (rape; [5]) | Rape plant response rating (rape; [6]) | Rape plant response rating (rape; [7]) | Rape plant response rating (rape; [8]) | Plant response rating, Soybean (soybean; Preemergence, Rate 62 g/ha) | Plant response rating, Soybean (soybean; Preemergence, Rate 125 g/ha) | Soybean plant response rating (soybean; [5]) | Soybean plant response rating (soybean; [6]) | Soybean plant response rating (soybean; [7]) | Sugarbeets plant response rating (sugar beet; [1]) | Plant response rating, Sugarbeets (sugar beet; Preemergence, Rate 62 g/ha) | Plant response rating, Sugarbeets (sugar beet; Preemergence, Rate 125 g/ha) | Sugarbeets plant response rating (sugar beet; [5]) | Sugarbeets plant response rating (sugar beet; [6]) | Sugarbeets plant response rating (sugar beet; [7]) | Sugarbeets plant response rating (sugar beet; [8]) | Velvetleaf plant response rating (velvetleaf; [1]) | Plant response rating, Velvetleaf (velvetleaf; Preemergence, Rate 62 g/ha) | Plant response rating, Velvetleaf (velvetleaf; Preemergence, Rate 125 g/ha) | Velvetleaf plant response rating (velvetleaf; [5]) | Velvetleaf plant response rating (velvetleaf; [6]) | Velvetleaf plant response rating (velvetleaf; [7]) | Velvetleaf plant response rating (velvetleaf; [8]) | Wheat plant response rating (wheat; [1]) | Plant response rating, Wheat (wheat; Preemergence, Rate 62 g/ha) | Plant response rating, Wheat (wheat; Preemergence, Rate 125 g/ha) | Wheat plant response rating (wheat; [5]) | Wheat plant response rating (wheat; [6]) | Wheat plant response rating (wheat; [7]) | Wheat plant response rating (wheat; [8]) | Wild oats plant response rating (wild oat; [1]) | Plant response rating, Wild oats (wild oat; Preemergence, Rate 62 g/ha) | Plant response rating, Wild oats (wild oat; Preemergence, Rate 125 g/ha) | Wild oats plant response rating (wild oat; [5]) | Wild oats plant response rating (wild oat; [6]) | Wild oats plant response rating (wild oat; [7]) | Wild oats plant response rating (wild oat; [8]) | Plant response rating, Rice (0 to 10 scale, 0 is no effect, 10 is complete control) (rice; [9]) | Rice plant response rating (0 to 10 scale, 0 is no effect, 10 is complete control) (rice; [10]) | Rice plant response rating (rice; [11]) | Rice plant response rating (rice; [12]) | Plant response rating, S. Flatsedge (0 to 10 scale, 0 is no effect, 10 is complete control) (smallflower flatsedge; [9]) | S. Flatsedge plant response rating (0 to 10 scale, 0 is no effect, 10 is complete control) (smallflower flatsedge; [10]) | S. Flatsedge plant response rating (smallflower flatsedge; [11]) | S. Flatsedge plant response rating (smallflower flatsedge; [12])
6: Blackgrass plant response rating (blackgrass; [2])
2: Blackgrass plant response rating (blackgrass; [1]) | B. signalgrass plant response rating (surinam grass; [2])
4: Giant foxtail plant response rating (giant foxtail; [5])
3: Giant foxtail plant response rating (giant foxtail; [1])
1: Morningglory plant response rating (morningglory; [1]) | Morningglory plant response rating (morningglory; [7]) | Morningglory plant response rating (morningglory; [8]) | Soybean plant response rating (soybean; [1]) | Soybean plant response rating (soybean; [8])
